# Tested on: RSV A2
# Experiment: RSV antiviral cytopathic effect (CPE) assay, MTT readout
# Type: cell-based
# Conditions: human respiratory syncytial virus, HEp-2, 120 h; RSV A2 in HEp2 cells, CPE assay, MTT, approx. 5 days; read-out: Activity Range (RSV A2 antiviral EC50), compounds of Table 2
# Method: Method Q: RSV Antiviral Assay Protocol
# Compounds of the invention were tested for their antiviral activity against respiratory syncytial virus. Cytopathic effect (CPE) assays were performed essentially as described in the literature (see for example Watanabe et al, 1. Virological Methods, 1994, 48, 257). Serial dilutions of the test compounds were made in assay medium. HEp2 cells (1.0×10^4 cells/well) were infected with RSV at a low multiplicity of infection (e.g. RSV A2 at an moi of 0.01) and 100 μL added to cultures assessing antiviral activity and cells without virus added to those assessing compound cytotoxicity. Assays were incubated for approximately 5 days at 37° C. in a 5% CO2 atmosphere. The extent of CPE was determined via metabolism of the vital dye 3-(4,5-dimethylthiaxol-2-yl)-2,5-diphenyltetrazolium bromide (MTT). A 3 mg/ml stock of MTT was made in assay medium and 100 μL added to each well, taking the final MTT concentration to […]. After 2 hours incubation at 37° C., the media-MTT solution was removed and 200 μL of isopropanol was added to dissolve the vital dye crystals. Plates were shaken and the absorbance read at 540 nm. The compound concentrations that inhibited CPE by 50% (EC50) and developed cytotoxicity (CC50) were calculated using an Excel curve fitting program.
row,SMILES,EC50
1,COc1ccc(NC(=O)N2CCN3C(=O)c4ccccc4C23c2ccc(C)cc2)cc1 (stereo not shown) [Compound 86],0.1 to 0.25 µg/mL
2,C=CCCC(=O)N1CCN2C(=O)c3ccccc3C12c1ccc(Cl)cc1 (stereo not shown) [Compound 250],0.25 to 1 µg/mL
3,CCc1ccc(C23c4ccccc4C(=O)N2CCN3C(=O)Cc2ccc(OC)cc2)cc1 (stereo not shown) [Compound 190],0.25 to 1 µg/mL
4,O=C(CC1CCCC1)N1CCN2C(=O)c3ccccc3C12c1ccc(Cl)cc1 (stereo not shown) [Compound 216],0.25 to 1 µg/mL
5,O=C1c2ccccc2C2(c3ccc(Cl)cc3)N1CCN2C(=O)[C@@H]1CSC(c2cccs2)=N1 (stereo partly shown) [Compound 323],0.25 to 1 µg/mL
6,O=C(Cc1cccc(Br)c1)N1CCN2C(=O)c3ccccc3C12c1ccc(Cl)cc1 (stereo not shown) [Compound 242],0.1 to 0.25 µg/mL
7,Cn1cc(C(=O)N2CCN3C(=O)c4ccccc4C32c2ccc(Cl)cc2)c(C(F)(F)F)n1 (stereo not shown) [Compound 333],< 0.1 µg/mL
8,O=C(CCCc1ccccc1)N1CCN2C(=O)c3ccccc3C12c1ccc(Cl)cc1 (stereo not shown) [Compound 227],0.25 to 1 µg/mL
9,CCC(=O)N1CCN2C(=O)c3ccccc3C12c1ccc(C)cc1 (stereo not shown) [Compound 117],0.25 to 1 µg/mL
10,O=C(c1ccco1)N1CCN2C(=O)c3ccccc3C12c1ccc(Cl)cc1 (stereo not shown) [Compound 219],< 0.1 µg/mL
11,O=C(c1ccc(Cl)nc1)N1CCN2C(=O)c3ccccc3C12c1ccc(Cl)cc1 (stereo not shown) [Compound 312],0.25 to 1 µg/mL
12,Cc1noc(C)c1COc1ccc(C23c4ccccc4C(=O)N2CCN3C(=O)c2ccc(F)cc2)cc1 (stereo not shown) [Compound 263],0.1 to 0.25 µg/mL
13,O=C(c1ccno1)N1CCN2C(=O)c3ccccc3C12c1ccc(Cl)cc1 (stereo not shown) [Compound 183],0.1 to 0.25 µg/mL
14,O=C(c1cccs1)N1CCN2C(=O)c3ccccc3C12c1ccc(Cl)cc1 (stereo not shown) [Compound 224],< 0.1 µg/mL
15,Cc1cc(C(=O)N2CCN3C(=O)c4ccccc4C32c2ccc(Cl)cc2)c(C)o1 (stereo not shown) [Compound 325],< 0.1 µg/mL
16,O=C(c1cccc(Cl)n1)N1CCN2C(=O)c3ccccc3C12c1ccc(Cl)cc1 (stereo not shown) [Compound 330],0.1 to 0.25 µg/mL
17,CCCc1ccc(C23c4ccccc4C(=O)N2CCN3C(=O)c2ccc(F)cc2)cc1 (stereo not shown) [Compound 200],< 0.1 µg/mL
18,NC(=O)COc1ccc(C23c4ccccc4C(=O)N2CCN3C(=O)c2ccc(F)cc2)cc1 (stereo not shown) [Compound 266],0.25 to 1 µg/mL
19,O=C(NCc1ccc(F)cc1)N1CCN2C(=O)c3ccccc3C12c1ccc(Cl)cc1 (stereo not shown) [Compound 87],0.1 to 0.25 µg/mL
20,CCCOc1ccc(C23c4ccccc4C(=O)N2CCN3C(=O)c2ccc(F)cc2)cc1 (stereo not shown) [Compound 311],0.1 to 0.25 µg/mL

row,SMILES,EC50
1,Cc1nonc1C(=O)N1CCN2C(=O)c3ccccc3C21c1ccc(Cl)cc1 (stereo not shown) [Compound 335],< 0.1 µg/mL
2,COc1ccc(CC(=O)N2CCN3C(=O)c4ccccc4C23c2ccc(Br)cc2)cc1 (stereo not shown) [Compound 235],0.1 to 0.25 µg/mL
3,Cc1nc(C(=O)N2CCN3C(=O)c4ccccc4C23c2ccc(Cl)cc2)cs1 (stereo not shown) [Compound 188],0.25 to 1 µg/mL
4,O=C(c1csnn1)N1CCN2C(=O)c3ccccc3C12c1ccc(Cl)cc1 (stereo not shown) [Compound 243],< 0.1 µg/mL
5,O=C(c1ccc(F)cc1)N1CCN2C(=O)c3ccccc3C12c1cccc(Cl)c1 (stereo not shown) [Compound 144],0.1 to 0.25 µg/mL
6,Cc1ccc(CNC(=O)N2CCN3C(=O)c4ccccc4C23c2ccc(C)cc2)cc1 (stereo not shown) [Compound 178],0.25 to 1 µg/mL
7,COc1ccc(CNC(=O)N2CCN3C(=O)c4ccccc4C23c2ccc(Cl)cc2)cc1 (stereo not shown) [Compound 180],0.25 to 1 µg/mL
8,O=C1c2ccccc2C2(c3ccc(Cl)cc3)N1CCN2C(=O)c1sccc1Cl (stereo not shown) [Compound 328],0.1 to 0.25 µg/mL
9,O=C(c1ccc(F)cc1)N1CCN2C(=O)c3ccccc3C12c1ccc(C(F)(F)F)cc1 (stereo not shown) [Compound 307],0.1 to 0.25 µg/mL
10,O=C(CSc1ccccn1)N1CCN2C(=O)c3ccccc3C12c1ccc(Cl)cc1 (stereo not shown) [Compound 299],0.25 to 1 µg/mL
11,O=C(c1ccc(F)cc1)N1CCN2C(=O)c3ccccc3C12c1ccc(F)cc1 (stereo not shown) [Compound 231],0.25 to 1 µg/mL
12,O=C(c1ccc(F)cc1)N1CCN2C(=O)c3ccccc3C12c1ccc(OCC2CC2)cc1 (stereo not shown) [Compound 267],< 0.1 µg/mL
13,COc1ccc(-c2ocnc2C(=O)N2CCN3C(=O)c4ccccc4C32c2ccc(Cl)cc2)cc1 (stereo not shown) [Compound 332],< 0.1 µg/mL
14,COc1ccc(CNC(=O)N2CCN3C(=O)c4ccccc4C23c2ccc(C)cc2)cc1 (stereo not shown) [Compound 179],0.25 to 1 µg/mL
15,COc1ccc(CCC(=O)N2CCN3C(=O)c4ccccc4C23c2ccc(Cl)cc2)cc1 (stereo not shown) [Compound 211],0.25 to 1 µg/mL
16,Cc1ccc(C23c4ccccc4C(=O)N2CCN3C(=O)NCc2ccccc2)cc1 (stereo not shown) [Compound 82],0.25 to 1 µg/mL
17,O=C1c2ccccc2C2(c3ccc(Cl)cc3)N1CCN2C(=O)C1Cc2ccccc21 (stereo not shown) [Compound 218],0.25 to 1 µg/mL
18,CCCc1ccc(C23c4ccccc4C(=O)N2CCN3C(=O)CC)cc1 (stereo not shown) [Compound 199],0.25 to 1 µg/mL
19,COc1ccc(CC(=O)N2CCN3C(=O)c4ccccc4C23c2ccc(C(F)(F)F)cc2)cc1 (stereo not shown) [Compound 304],0.25 to 1 µg/mL
20,CC(C)CC(=O)N1CCN2C(=O)c3ccccc3C12c1ccc(Cl)cc1 (stereo not shown) [Compound 214],0.25 to 1 µg/mL

# Same assay, conditions: human respiratory syncytial virus, HEp-2, 120 h; RSV A2 in HEp2 cells, CPE assay, MTT, approx. 5 days; read-out: Activity Range (RSV A2 antiviral EC50), compounds of Table 3
row,SMILES,EC50
1,CCCSc1ncccc1C(=O)N1CCN2C(=O)c3ccncc3C21c1ccc(Cl)cc1 (stereo not shown) [Compound 401],0.1 to 0.25 µg/mL
2,COc1cscc1C(=O)N1CCN2C(=O)c3ccncc3C12c1ccc(Cl)cc1 (stereo not shown) [Compound 441],0.1 to 0.25 µg/mL
3,O=C(c1ccc(C#Cc2ccccc2)o1)N1CCN2C(=O)c3ccncc3C12c1ccc(Cl)cc1 (stereo not shown) [Compound 416],0.25 to 1 µg/mL
4,O=C(c1ccc(F)nc1)N1CCN2C(=O)c3cnccc3C12c1ccc(Br)cc1 (stereo not shown) [Compound 367],0.25 to 1 µg/mL
5,O=C(c1ccco1)N1CCN2C(=O)c3ccncc3C12c1ccc(Cl)cc1 (stereo not shown) [Compound 413],< 0.1 µg/mL
6,COc1ccc(CC(=O)N2CCN3C(=O)c4ccncc4C23c2ccc(Cl)cc2)cc1 (stereo not shown) [Compound 351],0.25 to 1 µg/mL
7,O=C(c1cccs1)N1CCN2C(=O)c3ccncc3C12c1ccc(Cl)cc1 (stereo not shown) [Compound 431],< 0.1 µg/mL
8,O=C(c1csc(-c2ccc[n+]([O-])c2)n1)N1CCN2C(=O)c3cc[n+]([O-])cc3C12c1ccc(Cl)cc1 (stereo not shown) [Compound 482],< 0.1 µg/mL
9,O=C(c1ccc(Cl)nc1)N1CCN2C(=O)c3ccncc3C12c1ccc(Cl)cc1 (stereo not shown) [Compound 364],0.25 to 1 µg/mL
10,CCc1ccc(C23c4cnccc4C(=O)N2CCN3C(=O)c2ccc(F)cc2)cc1 (stereo not shown) [Compound 361],0.1 to 0.25 µg/mL
11,O=C(c1cncc(C#Cc2ccccc2)c1)N1CCN2C(=O)c3ccncc3C12c1ccc(Cl)cc1 (stereo not shown) [Compound 406],0.25 to 1 µg/mL
12,Cn1cc(C(=O)N2CCN3C(=O)c4ccncc4C32c2ccc(Cl)cc2)c(C(F)(F)F)n1 (stereo not shown) [Compound 467],< 0.1 µg/mL
13,O=C1c2ccncc2C2(c3ccc(Cl)cc3)N1CCN2C(=O)c1ncoc1-c1ccccc1 (stereo not shown) [Compound 463],< 0.1 µg/mL
14,O=C1c2ccncc2C2(c3ccc(Cl)cc3)N1CCN2C(=O)c1sccc1Br (stereo not shown) [Compound 445],< 0.1 µg/mL
15,Cc1nonc1C(=O)N1CCN2C(=O)c3ccncc3C21c1ccc(Cl)cc1 (stereo not shown) [Compound 484],< 0.1 µg/mL
16,COc1c(C(=O)N2CCN3C(=O)c4ccncc4C32c2ccc(Cl)cc2)csc1Br (stereo not shown) [Compound 438],0.25 to 1 µg/mL
17,CCCCCSc1ncccc1C(=O)N1CCN2C(=O)c3ccncc3C21c1ccc(Cl)cc1 (stereo not shown) [Compound 399],0.25 to 1 µg/mL

row,SMILES,EC50
1,CCCCC#Cc1cncc(C(=O)N2CCN3C(=O)c4ccncc4C23c2ccc(Cl)cc2)c1 (stereo not shown) [Compound 408],0.25 to 1 µg/mL
2,Cc1cc(C(=O)N2CCN3C(=O)c4ccncc4C23c2ccc(Cl)cc2)nn1C (stereo not shown) [Compound 421],0.25 to 1 µg/mL
3,CCn1nc(C)cc1C(=O)N1CCN2C(=O)c3ccncc3C21c1ccc(Cl)cc1 (stereo not shown) [Compound 422],0.25 to 1 µg/mL
4,Cc1nn(-c2ccccc2)nc1C(=O)N1CCN2C(=O)c3ccncc3C21c1ccc(Cl)cc1 (stereo not shown) [Compound 387],0.1 to 0.25 µg/mL
5,O=C1c2ccncc2C2(c3ccc(Cl)cc3)N1CCN2C(=O)c1sccc1Cl (stereo not shown) [Compound 442],< 0.1 µg/mL
6,Cc1nc(C(=O)N2CCN3C(=O)c4ccncc4C23c2ccc(Cl)cc2)cs1 (stereo not shown) [Compound 444],0.1 to 0.25 µg/mL
7,O=C(c1csc(-c2ccccc2)n1)N1CCN2C(=O)c3ccncc3C12c1ccc(Cl)cc1 (stereo not shown) [Compound 391],< 0.1 µg/mL
8,O=C(c1ccsc1)N1CCN2C(=O)c3ccncc3C12c1ccc(Cl)cc1 (stereo not shown) [Compound 430],< 0.1 µg/mL
9,O=C(c1csc(-c2cccs2)n1)N1CCN2C(=O)c3ccncc3C12c1ccc(Cl)cc1 (stereo not shown) [Compound 377],< 0.1 µg/mL
10,O=C(c1cscn1)N1CCN2C(=O)c3ccncc3C12c1ccc(Cl)cc1 (stereo not shown) [Compound 483],< 0.1 µg/mL
11,O=C(c1ccoc1)N1CCN2C(=O)c3ccncc3C12c1ccc(Cl)cc1 (stereo not shown) [Compound 414],< 0.1 µg/mL
12,CCOc1ccsc1C(=O)N1CCN2C(=O)c3ccncc3C21c1ccc(Cl)cc1 (stereo not shown) [Compound 449],< 0.1 µg/mL
13,O=C(c1ccc(F)nc1)N1CCN2C(=O)c3ccncc3C12c1ccc(Br)cc1 (stereo not shown) [Compound 366],< 0.1 µg/mL
14,O=C(c1cccc(Cl)n1)N1CCN2C(=O)c3ccncc3C12c1ccc(Cl)cc1 (stereo not shown) [Compound 453],< 0.1 µg/mL
15,CCc1ccc(C23c4cnccc4C(=O)N2CCN3C(=O)Cc2ccc(OC)cc2)cc1 (stereo not shown) [Compound 371],0.25 to 1 µg/mL
16,O=C(c1ccc(F)nc1)N1CCN2C(=O)c3ccncc3C12c1ccc(Cl)cc1 (stereo not shown) [Compound 368],< 0.1 µg/mL

# — patent US8598193B2, “Polycyclic agents for the treatment of respiratory syncytial virus infections” (Biota Scientific Management Pty Ltd., priority 2003, dated 2013)
